Test results: US7521444B2, “Compounds for the treatment of hepatitis C” (Bristol-Myers Squibb Company, priority 2007, dated 2009)

Experiments:
[1] = system: HCV replicon cells; experiment: HCV replicon FRET / luciferase assay; format: cell-based; details: 50% reduction in FRET or luciferase activity
Description: FRET Assay Preparation. The HCV FRET screening assay was performed in 96-well cell culture plates. The FRET peptide (Anaspec, Inc.) (Taliani et al., Anal. Biochem. 1996, 240, 60-67) contains a fluorescence donor, EDANS, near one end of the peptide and an acceptor, DABCYL, near the other end. The fluorescence of the peptide is quenched by […] resonance energy transfer (RET) between the donor and the acceptor, but as the NS3 protease cleaves the peptide the products are released from RET quenching and the fluorescence of the donor becomes apparent. The assay reagent was made as follows: 5× cell Luciferase cell culture lysis reagent from Promega (#E153A) diluted to 1× with dH2O, NaCl added to 150 mM final, the FRET peptide diluted to 20 μM final from a 2 mM stock.
To prepare plates, HCV replicon cells, with or without a Renilla luciferase reporter gene, were trypsinized and plated in a 96-well plate with titrated test compounds added in columns 3 through 12; columns 1 and 2 contained a control compound (HCV control inhibitor), and the bottom row contained cells with DMSO only. The plates were then placed in a CO2 incubator at 37° C.
Assays. Subsequent to addition of the test compounds described above (FRET Assay Preparation), at various times the plate was removed and Alamar blue solution (Trek Diagnostics, #00-100) was added to measure cellular toxicity. After reading in a Cytoflour 4000 instrument (PE Biosystems), plates were rinsed with PBS and then used for FRET assay by the addition of 30 ul of the FRET peptide assay reagent described above (FRET Assay Preparation) per well. The plate was then placed into the Cytoflour 4000 instrument which had been set to 340 excite/490 emission, automatic mode for up to 20 cycles and the plate read in a kinetic mode. Typically, the signal to noise using an endpoint analysis after the reads was at least three-fold. Alternatively, after Alamar blue reading, plates were rinsed with PBS, then used for luciferase assay using the Promega Dual-Glo Luciferase Assay System or the Promega EnduRen Live Cell Substrate assay.
Compound analysis was performed by quantification of the relative HCV replicon inhibition and the relative cytotoxicity values. To calculate cytoxicity values, the average Alamar Blue fluorescence signals from the control wells were set as 100% non-toxic. The individual signals in each of the compound test wells were then divided by the average control signal and multiplied by 100% to determine […]. To calculate the HCV replicon inhibition values, an average background value was obtained from the two wells containing the highest amount of HCV control inhibitor at the end of the assay period. These numbers were similar to those obtained from naïve Huh-7 cells. The background numbers were then subtracted from the average signal obtained from the control wells and this number was used as 100% activity. The individual signals in each of the compound test wells were then divided by the averaged control values after background subtraction and multiplied by 100% to determine percent activity. EC50 values were calculated as the concentration which caused a 50% reduction in FRET or luciferase activity. The two numbers generated for the compound plate, percent cytoxicity and percent activity, were used to determine compounds of interest for further analysis.

[2] = target: T1, HCV NS5B (Hepatitis C virus genotype 1b, UniProt Q9WMX2); experiment: HCV NS5B RdRp enzyme assay (standard or modified); format: biochemical; details: HCV NS5B RdRp genotype 1b enzyme; standard or modified assay not stated
T1 construct: The protein was expressed with an 18 amino acid C-terminal truncation to enhance the solubility; made in house; host or cells: E. coli BL21(DE3), pET21a
T1 sequence (Q9WMX2 2420-2992): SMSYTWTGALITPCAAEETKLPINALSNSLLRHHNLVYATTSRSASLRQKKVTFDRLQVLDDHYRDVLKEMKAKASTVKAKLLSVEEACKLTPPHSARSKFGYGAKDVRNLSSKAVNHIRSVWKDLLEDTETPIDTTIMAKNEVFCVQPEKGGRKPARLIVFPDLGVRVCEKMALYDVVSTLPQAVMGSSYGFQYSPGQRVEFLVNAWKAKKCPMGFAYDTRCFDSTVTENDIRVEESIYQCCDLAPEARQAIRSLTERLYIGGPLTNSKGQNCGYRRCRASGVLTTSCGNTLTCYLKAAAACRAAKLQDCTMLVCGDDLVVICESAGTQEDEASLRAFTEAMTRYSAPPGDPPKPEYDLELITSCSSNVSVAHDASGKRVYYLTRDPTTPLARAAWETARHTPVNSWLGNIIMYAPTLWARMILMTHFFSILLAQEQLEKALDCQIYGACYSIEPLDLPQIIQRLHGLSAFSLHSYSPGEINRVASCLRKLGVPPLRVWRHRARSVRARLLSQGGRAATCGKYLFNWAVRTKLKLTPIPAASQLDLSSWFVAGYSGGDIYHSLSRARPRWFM
Description: HCV NS5B RdRp cloning, expression, and purification. The cDNA encoding the NS5B protein of HCV, genotype 1b, was cloned into the pET21a expression vector. The protein was expressed with an 18 amino acid C-terminal truncation to enhance the solubility. The E. coli competent cell line BL21(DE3) was used for expression of the protein. Cultures were grown at 37° C. for ˜4 hours until the cultures reached an optical density of 2.0 at 600 nm. The cultures were cooled to 20° C. and induced with 1 mM IPTG. Fresh ampicillin was added to a final concentration of 50 μg/ml and the cells were grown overnight at 20° C.
Cell pellets (3 L) were lysed for purification to yield 15-24 mgs of purified NS5B. The lysis buffer consisted of 20 mM Tris-HCl, pH 7.4, 500 mM NaCl, 0.5% triton X-100, 1 mM DTT, 1 mM EDTA, 20% glycerol, 0.5 mg/ml lysozyme, 10 mM MgCl2, 15 ug/ml deoxyribonuclease I, and Complete TM protease inhibitor tablets (Roche). After addition of the lysis buffer, frozen cell pellets were resuspended using a tissue homogenizer. To reduce the viscosity of the sample, aliquots of the lysate were sonicated on ice using a microtip attached to a Branson sonicator. The sonicated lysate was centrifuged at 100,000×g for 1 hr at 4° C. and filtered through a 0.2 μm filter unit (Corning).
The protein was purified using two sequential chromatography steps: Heparin sepharose CL-6B and polyU sepharose 4B (Pharmacia). The chromatography buffers were identical to the lysis buffer but contained no lysozyme, deoxyribonuclease I, MgCl2 or protease inhibitor and the NaCl concentration of the buffer was adjusted according to the requirements for charging the protein onto the column. Each column was eluted with a NaCl gradient which varied in length from 5-50 column volumes depending on the column type. After the final chromatography step, the resulting purity of the enzyme is >90% based on SDS-PAGE analysis. The enzyme was aliquoted and stored at −80° C.
Standard HCV NS5B RdRp enzyme assay. HCV RdRp genotype 1b assays were run in a final volume of 60 μl in 96 well plates (Corning 3600). The assay buffer is composed of 20 mM Hepes, pH 7.5, 2.5 mM KCl, 2.5 mM MgCl2, 1 mM DTT, 1.6 U RNAse inhibitor (Promega N2515), 0.01 mg/ml BSA (Sigma B6917), and 2% glycerol. All compounds were serially diluted (3-fold) in DMSO and diluted further in water such that the final concentration of DMSO in the assay was 2%. HCV RdRp genotype 1b enzyme was used at a final concentration of 28 nM. A polyA template was used at 6 nM, and a biotinylated oligo-dT12 primer was used at 180 nM final concentration. Template was obtained commercially (Amersham 27-4110). Biotinylated primer was prepared by Sigma Genosys. 3H-UTP was used at 0.6 μCi (0.29 μM total UTP). Reactions were initiated by the addition of enzyme, incubated at 30° C. for 60 min, and stopped by adding 25 μl of 50 mM EDTA containing SPA beads (4 μg/μl, Amersham RPNQ 0007). Plates were read on a Packard Top Count NXT after >1 hr incubation at room temperature.
Modified HCV NS5B RdRp enzyme assay. A modified enzyme assay was performed essentially as described for the standard enzyme assay except for the following: The biotinylated oligo dT12 primer was precaptured on streptavidin-coated SPA beads by mixing primer and beads in assay buffer and incubating at room temperature for one hour. Unbound primer was removed after centrifugation. The primer-bound beads were resuspended in 20 mM Hepes buffer, pH 7.5 and used in the assay at final concentrations of 20 nM primer and 0.67 μg/μl beads. Order of addition in the assay: enzyme (1.75 nM) was added to diluted compound followed by the addition of a mixture of template (0.36 nM), 3H-UTP (0.6 μCi, 0.29 μM), and primer-bound beads, to initiate the reaction; concentrations given are final. Reactions were allowed to proceed for 4 hours at 30° C.
IC50 values for compounds were determined using seven different [I]. […]

SMILES: COc1ccc2c(c1)C1CC1(C(=O)N1CC3CCCN(C(C)=O)C3C1)Cn1c-2c(C2CCCCC2)c2ccc(C(=O)NS(=O)(=O)C3CC3)cc21 (centres unmarked) [drawing 68]
- EC50 [1]: 4.58 to 500 nM
- IC50 [2]: 4.58 to 500 nM
